Laboratory results published in article PMC7339578, “Multiple circulating alkaloids and saponins from intravenous Kang-Ai injection inhibit human cytochrome P450 and UDP-glucuronosyltransferase isozymes: potential drug–drug interactions” (Chinese Medicine, 2020).
Read-outs that look alike come from different tables or passages of the source.

Columns and labels:
[1] = Urinary (renal) excretion in rats after a 30-min infusion of Kang-Ai injection; format: in vivo, Sprague–Dawley rats; details: for CL renal: male, Sprague-Dawley, read-out: CLR (renal excretory clearance) (converted)
Description: (§1) For urine sampling, the rats were housed singly in metabolic cages. And then, the urine samples were collected at 0–4, 4–8 and 8–12 h after starting infusion and were weighed. Likewise, bile samples were also collected at 0–3, 3–6, 6–9 and 9–12 h after starting infusion and were weighed. The urine and bile collection tubes were all frozen at − 80 °C.
(§2) Pharmacokinetic parameters were estimated by non-compartmental analysis using WinNonlin 6.3 software (Pharsight, NC, US). Data are presented as the mean ± SD (n = 3). The area under the concentration–time curve up to the last measured point in time (AUC0-t) was calculated using the trapezoidal rule. The total plasma clearance (CLtot, p) was calculated by dividing the compound dose by the AUC0-∞, and the distribution volume at steady state (VSS) was estimated by multiplying the CLtot, p by the mean residence time (MRT). The renal excretory clearance (CLR) and hepatobiliary (CLB) was determined by dividing the cumulative amount excreted into urine (Cum.Ae-U) and bile (Cum.Ae-B) by the plasma AUC0-∞, respectively. The fractions of dose excreted into urine (fe-U) and the fractions of dose excreted into bile (fe-B) were established using the relationship Cum.Ae-U/Dose and Cum.Ae-B/Dose, respectively. Mean differences between treatment and control groups were analyzed by two-tailed unpaired Student’s t test by Graphpad Prism V5 software (SanDiego, CA). The level of significance was set at p < 0.05 (∗), p < 0.01 (∗∗) or p < 0.001 (∗∗∗).

[2] = Stability tests of analytes in rat plasma QC samples; format: in vitro ADME; details: rat plasma
Description: […] The dilution integrity was investigated by analyzing six replicate samples with each analyte, and each analyte were diluted 10-fold with blank rat matrix. Furthermore, the diluted samples were analyzed using freshly prepared calibration curve to calculate RE and RSD, which should be no more than ± 15% as criterion.

[3] = Protein binding assay (equilibrium dialysis); format: in vitro ADME, rat; details: for fraction unbound at 24 h: rat plasma, equilibrium dialysis 24 h, 37 °C, 2 μmol/L alkaloids, 4 μmol/L saponins, read-out: fu-plasma (unbound fraction)
Description: Binding of circulating alkaloids and saponins to rat plasma was measured by equilibrium dialysis using Spectra/Por 2 dialysis membranes (molecular weight cutoff, 12–14 kDa; Rancho Dominguez, CA, USA) as described. After equilibrating for 24 h at 55 rpm and 37 °C, the dialysate and the plasma were sampled for analysis. […] The concentrations of tested matrine, oxysophocarpine and oxymatrine were 2 μmol/L, while those of astragaloside IV, III, and ginsenosides Rh1, Rg2, Rg1, Rf, Re, Rd, Rc, Rb1, Rb2, notoginsenosides R1, R2, were 4 μmol/L. The unbound fraction (fu-plasma) in rat plasma was calculated as follow: fu-plasma = Cd/Cp × 100%, where the Cd and Cp values were the concentrations of each analyte in the dialysate sample and in the post-dialysis plasma sample, respectively.

[4] = Plasma pharmacokinetics in rats after a 30-min intravenous infusion of Kang-Ai injection; format: in vivo, Sprague–Dawley rats; details: for clearance / Vd: Table 1 unit; for clearance: read-out: CLtot, p (converted); for Vd: read-out: VSS; for half-life: read-out: t1/2 (converted)
Description: Specific pathogen free (SPF) grade male Sprague–Dawley rats (250 ± 20) g were provided by the Experimental Animal Center of Zhengzhou University (Zhengzhou, China). These rats were kept in a designated animal room at constant temperature (22 ± 2) °C and humidity (50 ± 20) % with 12 h of light/dark per day and free access to water and food. All protocols of animal experiments were approved in accordance with the Regulations of Experimental Animal Administration issued by the Ethics Review Committee for Animal Experimentation of Jinan University (Ethical Review NO. 20190301010). Prior to the experiments, the rats were fasted for 12 h but with free access to water. After study use, the rats were euthanized with CO2 gas.
The rats in this study all received a single 30-min intravenous infusion of Kang-Ai injection via the tail veins using TYD01-02 infusion pumps (Lead Fluid, Baoding, China). The dose was derived from the label daily dose of Kang-Ai injection (60 mL/person, once daily) according to dose normalization by body surface area. For plasma pharmacokinetic studies, the rats were randomly received a single intravenous 30 min-bolus dose at 6 mL/kg. Blood samples (100 μL) were collected from the rats’ external jugular veins into heparinized polypropylene tubes at 5, 15, 30, 45 min, and 1, 1.5, 2, 3, 4, 6, 8, 12 h. After gently shaking for 10 s, the blood samples were centrifuged at 13000 g for 10 min to yield plasma samples, which were kept frozen at − 80 °C until analysis.
as §2

[5] = Biliary (hepatobiliary) excretion in rats after a 30-min infusion of Kang-Ai injection; format: in vivo, Sprague–Dawley rats
Description: as §1, §2

[6] = rat urine 0–12 h, Kang-Ai injection 6 mL/kg iv
[7] = male, Sprague-Dawley, plasma, rat, 30-min iv infusion of Kang-Ai injection 6 mL/kg
[8] = male, Sprague-Dawley, in vivo, rat, 30-min iv infusion of Kang-Ai injection 6 mL/kg

| SMILES | fe-U,0–12h (fraction of dose excreted into urine) [1, 6] [%] | At -80 °C for 48 h, Mean±SD ([2]; nominal conc. 20 nM) [nM] | At -80 °C for 48 h, RE ([2]; nominal conc. 20 nM) [%] | Extracted samples at 8 °C for 18 h, Mean±SD ([2]; nominal conc. 20 nM) [nM] | Extracted samples at 8 °C for 18 h, RE ([2]; nominal conc. 20 nM) [%] | Short-term stability at room temperature for 6 h, Mean±SD ([2]; nominal conc. 20 nM) [nM] | Short-term stability at room temperature for 6 h, RE ([2]; nominal conc. 20 nM) [%] | Three freeze-thaw cycles (-80 °C ↔ 23 °C), Mean±SD ([2]; nominal conc. 20 nM) [nM] | Three freeze-thaw cycles (-80 °C ↔ 23 °C), RE ([2]; nominal conc. 20 nM) [%] | At -80 °C for 48 h, Mean±SD ([2]; nominal conc. 100 nM) [nM] | At -80 °C for 48 h, RE ([2]; nominal conc. 100 nM) [%] | Extracted samples at 8 °C for 18 h, Mean±SD ([2]; nominal conc. 100 nM) [nM] | Extracted samples at 8 °C for 18 h, RE ([2]; nominal conc. 100 nM) [%] | Short-term stability at room temperature for 6 h, Mean±SD ([2]; nominal conc. 100 nM) [nM] | Short-term stability at room temperature for 6 h, RE ([2]; nominal conc. 100 nM) [%] | Three freeze-thaw cycles (-80 °C ↔ 23 °C), Mean±SD ([2]; nominal conc. 100 nM) [nM] | Three freeze-thaw cycles (-80 °C ↔ 23 °C), RE ([2]; nominal conc. 100 nM) [%] | At -80 °C for 48 h, Mean±SD ([2]; nominal conc. 400 nM) [nM] | At -80 °C for 48 h, RE ([2]; nominal conc. 400 nM) [%] | Extracted samples at 8 °C for 18 h, Mean±SD ([2]; nominal conc. 400 nM) [nM] | also measured |
| --- | --- | --- | --- | --- | --- | --- | --- | --- | --- | --- | --- | --- | --- | --- | --- | --- | --- | --- | --- | --- | --- |
| CC(C)=CCC[C@](C)(O[C@@H]1O[C@H](CO[C@@H]2OC[C@H](O)[C@H](O)[C@H]2O)[C@@H](O)[C@H](O)[C@H]1O)[C@H]1CC[C@]2(C)[C@@H]1[C@H](O)C[C@@H]1[C@@]3(C)CC[C@H](O[C@@H]4O[C@H](CO)[C@@H](O)[C@H](O)[C@H]4O[C@@H]4O[C@H](CO)[C@@H](O)[C@H](O)[C@H]4O)C(C)(C)[C@@H]3CC[C@]12C [Compound D4, Ginsenoside Rb2] | 27.80 ± 4.47 | 20.39 ± 1.54 | -6.96 | 19.58 ± 2.21 | -12.48 | 20.28 ± 1.99 | 10.37 | 20.89 ± 1.50 | 11.32 | 95.34 ± 8.02 | -12.47 | 96.04 ± 12.11 | -10.99 | 88.84 ± 2.61 | -13.48 | 104.61 ± 9.20 | 10.55 | 423.10 ± 46.59 | 12.64 | 434.41 ± 11.65 | CL renal ([1]; urine and plasma, rat, Kang-Ai injection 6 mL/kg iv): 0.0357 mL/min; Extracted samples at 8 °C for 18 h, RE ([2]; nominal conc. 400 nM): 11.01%; Short-term stability at room temperature for 6 h, Mean±SD ([2]; nominal conc. 400 nM): 352.24 ± 2.93 nM; Short-term stability at room temperature for 6 h, RE ([2]; nominal conc. 400 nM): -12.50%; Three freeze-thaw cycles (-80 °C ↔ 23 °C), Mean±SD ([2]; nominal conc. 400 nM): 440.44 ± 2.62 nM; Three freeze-thaw cycles (-80 °C ↔ 23 °C), RE ([2]; nominal conc. 400 nM): 13.72%; fraction unbound at 24 h [3]: 0.0067 ± 0.0005; clearance [4, 7]: 0.13 mL/min; Vd [4, 7]: 0.0396 ± 0.0073 L; Cmax ([4]; male, Sprague-Dawley, rat plasma, 30-min iv infusion of Kang-Ai injection 6 mL/kg, read-out: Cmax): 301 ± 34.2 nM; half-life ([4]; male, Sprague-Dawley, rat plasma, 30-min iv infusion of Kang-Ai injection 6 mL/kg): 247 ± 49.8 min |
| CC(C)=CCC[C@](C)(O)[C@H]1CC[C@]2(C)[C@@H]1[C@H](O)C[C@@H]1[C@@]3(C)CC[C@H](O)C(C)(C)[C@@H]3[C@@H](O[C@@H]3O[C@H](CO)[C@@H](O)[C@H](O)[C@H]3O[C@@H]3OC[C@@H](O)[C@H](O)[C@H]3O)C[C@]12C [Compound C3, Notoginsenoside R2] | – | – | – | – | – | – | – | – | – | – | – | – | – | – | – | – | – | – | – | – | CLB (hepatobiliary clearance) ([5]; rat, in vivo, iv): 59.94 ± 6.71 mL/h; fe-B,0–12h (fraction of dose excreted into bile) ([5]; rat, in vivo, iv): 23.55 ± 1.97%; CLR (renal excretory clearance) ([1]; rat, in vivo, iv): 25.62 ± 3.48 mL/h; fe-U,0–12h (fraction of dose excreted into urine) ([1]; rat, in vivo, iv): 10.27 ± 2.49%; fu-plasma (unbound fraction) ([3]; rat, plasma): 35.24 ± 2.85%; AUC0–12h ([4]; rat, in vivo, iv): 0.08557 ± 0.01054 µM·h; CLtot, p ([4]; rat, in vivo, iv): 255.80 ± 34.97 mL/h; Cmax ([4]; rat, in vivo, iv): 128 ± 13.3 nM; VSS ([4]; rat, in vivo, iv): 99.30 ± 20.42 mL; t1/2 ([4]; rat, in vivo, iv): 17.4 ± 7.2 min |
| CC(C)=CCC[C@](C)(O)[C@H]1CC[C@]2(C)[C@@H]1[C@H](O)C[C@@H]1[C@@]3(C)CC[C@H](O)C(C)(C)[C@@H]3[C@@H](O[C@@H]3O[C@H](CO)[C@@H](O)[C@H](O)[C@H]3O)C[C@]12C [Compound C1, Ginsenoside Rh1] | 9.59 ± 1.68 | 22.38 ± 0.33 | 13.76 | 20.79 ± 2.88 | -12.72 | 20.81 ± 2.57 | 13.31 | 20.14 ± 2.50 | -13.10 | 88.26 ± 1.17 | -13.03 | 100.20 ± 11.08 | 12.81 | 92.25 ± 8.56 | -13.70 | 99.91 ± 9.81 | -10.86 | 379.88 ± 25.01 | -9.26 | 424.42 ± 36.39 | fe-B,0–12h (fraction of dose excreted into bile) ([5]; rat bile 0–12 h, Kang-Ai injection 6 mL/kg iv): 9.71 ± 0.98%; CL renal ([1]; in vivo, rat, Kang-Ai injection 6 mL/kg iv): 0.316 mL/min; Extracted samples at 8 °C for 18 h, RE ([2]; nominal conc. 400 nM): 12.32%; Short-term stability at room temperature for 6 h, Mean±SD ([2]; nominal conc. 400 nM): 376.44 ± 26.61 nM; Short-term stability at room temperature for 6 h, RE ([2]; nominal conc. 400 nM): -12.62%; Three freeze-thaw cycles (-80 °C ↔ 23 °C), Mean±SD ([2]; nominal conc. 400 nM): 370.01 ± 38.18 nM; Three freeze-thaw cycles (-80 °C ↔ 23 °C), RE ([2]; nominal conc. 400 nM): -13.77%; fraction unbound at 24 h [3]: 0.463 ± 0.0503; Cmax ([4]; male, Sprague-Dawley, in vivo, rat plasma, 30-min iv infusion of Kang-Ai injection 6 mL/kg, read-out: Cmax): 140 ± 20.4 nM; half-life ([4]; male, Sprague-Dawley, in vivo, rat plasma, 30-min iv infusion of Kang-Ai injection 6 mL/kg): 26.4 ± 23.4 min; clearance [4, 8]: 3.31 mL/min; Vd [4, 8]: 0.0936 ± 0.0456 L; AUC(0-t) ([4]; male, Sprague-Dawley, rat, in vivo, iv, rat plasma, 30-min iv infusion of Kang-Ai injection 6 mL/kg, read-out: AUC0–12h): 0.0912 ± 0.00477 µM·h |
